According to the COVID Moonshot data (paper PMC11187573), “Identification of SARS-CoV-2 Mpro inhibitors through deep reinforcement learning for de novo drug design and computational chemistry approaches” (RSC Medicinal Chemistry, 2024):

Molecular target: SARS-CoV-2 Main Protease (SARS-CoV-2) (UniProt P0DTD1)

Row | SMILES | inhibition (50.0 µM) | IC50 | inhibition (20.0 µM)
1 | C[C@H]1O[C@H](C)C2Oc3cc(O)c4c(=O)c5c6c7c8c(cc(=O)c9c(O)c1c2c(c3c47)c98)O[C@@H]6[C@@H](C)O[C@@H]5C (stereo in doubt) | 0% |  | 
2 | Cc1ccncc1NC(=O)Cc1cc(C#N)cc(OC2CC(=O)N2)c1 (stereo not drawn) |  | 8.63 µM | 
3 | COc1ccc2c(NC(=O)C3CCOc4ccc(Cl)cc43)noc2c1 (stereo not drawn) |  | 53.4 µM | 
4 | Cc1ccncc1NC(=O)Cc1cc(Cl)cc(NC2(C)CCC(F)(F)CC2)c1 |  | 45.5 µM | 
5 | O=C(Nc1cncc2ccccc12)C1=CCCc2ccc(Cl)cc21 |  | 0.0811 µM | 
6 | Cc1cc(O)c2c3c(ccc2c1)C(=O)c1c(O)cccc1C3=O | 5% |  | 
7 | Cc1ccncc1NC(=O)Cc1cc(Cl)cc(NC2CC2C(F)(F)F)c1 (stereo not drawn) |  | 19.7 µM | 
8 | Cc1ccncc1NC(=O)Cc1cc(Cl)cc(OCc2nnc(C3CCCCC3)o2)c1 | 100% | 13.3 µM | 
9 | CC(C)(C)c1ccc(N(C(=O)c2cnc[nH]2)C(C(=O)NCCc2cccc(F)c2)c2cccnc2)cc1 (stereo not drawn) | 100% | 1.05 µM | 
10 | CC(=O)O[C@@H]1OC2OC(=O)[C@H](C)C3=C([C@@]4(C)CCCC(C)(C)C4)CCC1C32 (stereo in doubt) | 0% |  | 
11 | O=C(Nc1cccnc1)[C@@H](c1ccccc1)N1Cc2ccccc2C1=O (stereo in doubt) |  | 59.6 µM | 
12 | Cc1ccncc1NC(=O)Cc1cc(Cl)cc(OCc2cc(-c3ccc(Cl)cc3)no2)c1 | 41.8% | 48.8 µM | 
13 | Cc1ccc(NC2=C(c3ccccc3)C(=O)N(Cc3cccnc3)C2=O)cc1Cl |  | 32.2 µM | 
14 | O=C(Nc1ccccc1)[C@@H](c1ccccc1)N1Cc2ccccc2C1=O (stereo in doubt) |  | 99.8 µM | 
15 | CC(=O)N1CCN(Cc2ccsc2)CC1 | 97.4% |  | 98.5%
16 | Cc1ccncc1NC(=O)Cc1cc(Cl)cc(OC2COC2)c1 |  | 15.3 µM | 
17 | Cc1ccncc1NC(=O)Cc1cc(Cl)cc(C2COC2)c1 |  | 56.9 µM | 
18 | O=C(Cc1cc(Cl)cc(Cc2ccn[nH]2)c1)Nc1cncc2ccccc12 |  | 9.39 µM | 
19 | Cc1c(C(=O)CCl)c2ccccn2c1C(=O)c1ccc(F)cc1 | 94.7% | 0.706 µM | 
20 | CCN(c1ccccc1)S(=O)(=O)c1ccc(OC)c(NC(=O)CCl)c1 | 61.2% | 6.96 µM | 
21 | Cc1cc(O)c2c(c1)C1(O)CC(C2=O)C2=C1C(=O)c1c(O)cccc1C2=O (stereo not drawn) | 81.1% | 58.2 µM | 
22 | Cc1ccncc1NC(=O)Cc1cc(Cl)cc(NC2CCC(F)(F)C2O)c1 (stereo not drawn) |  | 25.7 µM | 
23 | O=C(Cn1nnc2ccccc21)N(Cc1ccccc1)c1ccc(N2CCOCC2)cc1 |  | 18.2 µM | 
24 | OC[C@H]1O[C@H]([S][Au])[C@H](O)[C@@H](O)[C@@H]1O (stereo in doubt) | 83.1% |  | 
25 | O=C(Cc1cncc2ccccc12)N(CCC1CCCCC1)c1cccc(Cl)c1 |  | 1.02 µM | 
26 | O=C(c1cc(=O)[nH]c2ccccc12)N1CCN(Cc2cccc(Cl)c2)CC1 | 50.9% |  | 

Row | SMILES | inhibition (50.0 µM) | IC50 | inhibition (20.0 µM)
27 | CC(C)CCN1C(=O)C(=O)c2cc(Br)ccc21 |  | 24.3 µM | 
28 | O=C(c1cc(=O)[nH]c2ccccc12)N1CCN(Cc2cccc(C(F)(F)F)c2)CC1 | 24.8% |  | 
29 | CC(C)(C)C(=O)C(C#N)C(=O)Nc1ccc(Cl)cc1 (stereo not drawn) | 0% |  | 
30 | Cc1cc(C(=O)CCl)c(C)n1CC1COc2ccccc2O1 (stereo not drawn) | 82.2% | 4.15 µM | 
31 | CC(C)(O)CC1C2=C(Oc3c1c1c(c4ccccc34)OC(C)(C)C=C1)C(=O)c1ccccc1C2=O (stereo not drawn) | 3.92% |  | 
32 | O=C1C(=O)N(Cc2ccccc2)c2ccc([N+](=O)[O-])cc21 |  | 26.9 µM | 
33 | O=C(Cn1nnc2ccccc21)N(Cc1cccc(Cl)c1)c1ccc(N2CCCCC2)cc1 |  | 6.02 µM | 
34 | COc1cc2c(c3ccccc13)OC(C)(C)CC2Oc1cc2c(cc1C)C(=O)c1ccccc1C2=O (stereo not drawn) | 4% |  | 
35 | O=C(Cc1cccc(Cl)c1)N[C@H]1CCNC1=O (stereo in doubt) | 0% |  | 
36 | O=C(Cc1cncc2ccccc12)N1CCOc2ccc(Cl)cc21 |  | 3.66 µM | 
37 | O=C(CCc1cccc(Cl)c1)Nc1cncc2ccccc12 |  | 19.3 µM | 
38 | C[N+]1=C2C=C(N/C=C/c3ccc(O)cc3)C(=O)c3[nH]cc(c32)CC1 | 8.91% |  | 
39 | O=C(Cc1cccc(Cl)c1)Nc1cncc2c1CCCC2 |  | 1.84 µM | 
40 | C=CC(=O)N(c1cc(C(C)(C)C)on1)C(C(=O)NCCc1cccc(F)c1)c1cncc(C#N)c1 (stereo not drawn) |  | 10.6 µM | 
41 | Cc1ccncc1NC(=O)Cc1cc(Cl)cc(/C=C(/c2ccccc2)C(F)(F)F)c1 |  | 15.3 µM | 
42 | COc1ccc2c(N)nn(C(=O)C3CCOc4ccc(Cl)cc43)c2c1 (stereo not drawn) |  | 62.1 µM | 
43 | Cc1ccncc1N1CCC(c2cccc(Cl)c2)S1(=O)=O (stereo not drawn) |  | 68.2 µM | 
44 | Cc1ccc(NC2=C(c3ccccc3)C(=O)N(Cc3cccnc3)C2=O)c(C)c1 |  | 54.6 µM | 
45 | O=C(Nc1cncc2ccccc12)[C@H]1COc2ccc(Cl)cc2C1 (stereo in doubt) |  | 37.7 µM | 
46 | Cc1c(N)cncc1NC(=O)Cc1cccc(C#N)c1 |  | 32.2 µM | 
47 | COc1c(Cl)cccc1OCCNC(=O)c1cc(=O)[nH]c2ccccc12 |  | 16.5 µM | 
48 | Cc1ccncc1NC(=O)Cc1cc(Cl)cc(OCc2ncn[nH]2)c1 |  | 81 µM | 
49 | COc1ccc2c(=O)cc(-c3cc(OCc4ccccc4)ccc3OC)oc2c1 | 1.98% |  | 
50 | O=C(Nc1cncc2ccccc12)C1CCCc2ccc(Cl)cc21 (stereo not drawn) |  | 0.289 µM | 
51 | O=C(Nc1ccc(Cl)cc1)[C@@H](c1ccccc1)N1Cc2ccccc2C1=O (stereo in doubt) |  | 65 µM | 
52 | O=C(Cc1cccc(Cl)c1)Nc1cnccc1C1CC1 |  | 7.4 µM | 

Row | SMILES | inhibition (50.0 µM) | IC50 | inhibition (20.0 µM)
53 | CN(C)c1ccc(N(Cc2cscn2)C(=O)Cn2nnc3ccccc32)cc1 |  | 14.3 µM | 
54 | COc1cccc(C2=N/C(=C/c3sccc3C)C(=O)O2)c1 | 77.6% | 5.07 µM | 
55 | CC(C)(C)N1C=CN(C(C)(C)C)[CH]1[Au][Cl] | 100% | 0.117 µM | 
56 | CNc1ccc(N(C(=O)Cn2nnc3ccccc32)c2cccc(Cl)c2)cc1 |  | 10.6 µM | 
57 | O=c1ccc2c3ccc(=O)c4c(O)ccc(c5ccc(O)c1c52)c43 | 42.5% |  | 
58 | COc1ccc(Cl)cc1OCCNC(=O)c1cc(=O)[nH]c2cccc(OC)c12 |  | 0.19 µM | 
59 | O=C(Nc1c[nH]c(=O)c2ccccc12)C1CCOc2ccc(Cl)cc21 (stereo not drawn) |  | 83.7 µM | 
60 | O=C(Cc1cc(Cl)cc(CC2CC(=O)N2)c1)Nc1cncc2ccccc12 (stereo not drawn) |  | 4.42 µM | 
61 | Cc1ccncc1NC(=O)Cc1cc(Cl)cc(-c2cnn(C)c2C(F)F)c1 |  | 16 µM | 
62 | CNC(=O)Nc1ccc(N(Cc2ccsc2)C(=O)Cn2nnc3ccccc32)cc1 |  | 15.3 µM | 
63 | O=C(Nc1cncc2ccccc12)C1COc2c(Cl)cccc21 (stereo not drawn) |  | 5.36 µM | 
64 | CCc1cc(F)ccc1-c1cc(Cl)cc(CC(=O)Nc2cnccc2C)c1 |  | 26 µM | 
65 | CN(CC(=O)Nc1ccccc1Br)C(=O)CCl | 52.3% |  | 
66 | O=C(Cn1nnc2ccccc21)Nc1cccc(Cl)c1 | 55.1% | 29.4 µM | 
67 | Nc1nn(C(=O)C2CCOc3ccc(Cl)cc32)c2cc(F)ccc12 (stereo not drawn) |  | 53.3 µM | 
68 | CC(=O)N1CCN(Cc2cccs2)CC1 | 95.7% |  | 96.7%
69 | O=C(Cn1nnc2ccccc21)N(Cc1ccsc1)c1ccc(N2CCOCC2)cc1 |  | 21.3 µM | 
70 | COc1ccc(Cl)cc1OCCNC(=O)c1cc(=O)[nH]c2ccccc12 |  | 0.692 µM | 
71 | Cc1ccc(N(Cc2cscn2)C(=O)Cc2cncc3ccccc23)cc1 |  | 13.6 µM | 
72 | Cc1nc(CN2C(=O)C(=O)c3cc(Br)ccc32)cs1 |  | 18 µM | 
73 | Cc1ccncc1N1CCC(c2cccc(Cl)c2)C1=O (stereo not drawn) |  | 12.9 µM | 
74 | O=C(O)c1cn(-c2ccc(F)cc2)c2cc(N3CCNCC3)c(F)cc2c1=O | 20% |  | 
75 | Cc1ccncc1NC(=O)Cc1cc(Cl)cc(S(N)(=O)=O)c1 | 64% | 13.1 µM | 
76 | N#CC(C(=O)Nc1ccccc1)C(=O)c1cccs1 (stereo not drawn) | 0% |  | 
77 | CS(=O)(=O)Nc1cccc(C2=NN(C(=O)CCl)C(c3ccccc3)C2)c1 (stereo not drawn) | 57.6% |  | 
78 | O=C(NC[C@@]1(COc2ccc(C(F)(F)F)cn2)C[C@@H](O)[C@@H](O)C1)Nc1cccnc1 | 0% |  | 

Row | SMILES | inhibition (50.0 µM) | IC50 | inhibition (20.0 µM)
79 | O=C1CC(C(=O)Nc2cncc3ccccc23)c2cc(Br)ccc2N1 (stereo not drawn) |  | 1.12 µM | 
80 | Cc1ccncc1NC(=O)Cc1cc(Cl)cc(NS(C)(=O)=O)c1 | 54.6% |  | 
81 | O=C(Cc1cccc(Cl)c1)Nc1n[nH]c2ccc(F)cc12 |  | 88.6 µM | 
82 | CC[P](CC)(CC)=[Au][S][C@@H]1O[C@H](COC(C)=O)[C@@H](OC(C)=O)[C@H](OC(C)=O)[C@H]1OC(C)=O (stereo in doubt) | 100% |  | 
83 | O=C1OC(c2cccs2)=N/C1=C\c1ccc(N2CCOCC2)s1 | 91.7% | 0.706 µM | 
84 | C[C@@H]1C[C@H](C(=O)Nc2cncc3ccccc23)c2cc(Cl)ccc2O1 (stereo in doubt) |  | 2.66 µM | 
85 | CC(C)(C)c1ccc(N(C(=O)c2cn[nH]c2)C(C(=O)NCCc2cccc(F)c2)c2cccnc2)cc1 (stereo not drawn) | 100% | 4.84 µM | 
86 | COc1ccc(OCc2ccccc2)cc1-c1cc(=O)c2ccccc2o1 | 7.52% |  | 
87 | COC(=O)C(C(=O)Nc1cnccc1C)c1cccc(Cl)c1 (stereo not drawn) |  | 17.1 µM | 
88 | CN(C)c1ccc(N(Cc2ccn[nH]2)C(=O)Cn2nnc3ccccc32)cc1 |  | 90.8 µM | 
89 | O=C(CN(C(=O)Cc1cccnc1)c1ccc(-c2ncccn2)cc1)N1CCNCC1 | 0% |  | 
90 | O=C(Cc1cccc(Cl)c1)Nc1cncc2nc[nH]c12 | 79.5% | 7.97 µM | 
91 | O=C(NCC1=[SH]C=CC1)[C@@H](c1ccccc1)N1Cc2ccccc2C1=O (stereo in doubt) |  | 82 µM | 
92 | O=C(Nc1cncc2ccccc12)[C@@H]1COc2ccc(Cl)cc2C1 (stereo in doubt) |  | 3.56 µM | 
93 | O=C(Cc1cccc(Cl)c1)Nn1nnc2ccccc21 |  | 31 µM | 
94 | Cc1ccncc1NC(=O)C(C)c1cc(Cl)cc(OC2CC(=O)N2)c1 (stereo not drawn) |  | 88.1 µM | 
95 | O=C(CC(C[S][Au])C(=O)[O][Na])[O][Na] (stereo not drawn) | 39.1% |  | 
96 | CCC(=O)Nc1ccc(N(Cc2cscn2)C(=O)Cn2nnc3ccccc32)cc1 |  | 46.1 µM | 
97 | Cc1oncc1C(=O)Nc1ccc(C(F)(F)F)cc1 | 0% |  | 
98 | O=C(Cc1cncc2ccccc12)Nc1cccc(Cl)c1 |  | 7.2 µM | 
99 | O=C(c1cc(=O)[nH]c2ccccc12)N1CCN(c2cccc(Cl)c2)C(=O)C1 |  | 9.61 µM | 
100 | Cc1ccncc1NC(=O)Cc1cc(Cl)cc(OCCN2CCOCC2C)c1 (stereo not drawn) | 23.9% |  | 
101 | Cc1ccncc1NC(=O)Cc1cc(Cl)cc(-c2ccc(S(C)(=O)=O)cc2Cl)c1 |  | 19.5 µM | 
102 | COc1cccc2[nH]c(=O)cc(C(=O)N3CCN(c4cccc(Cl)c4)CC3)c12 |  | 1.84 µM | 
